According to PubChem BioAssay AID330 (DTP/NCI, 2004):
Several values for one entry are separate records, joined by “and”; a condition that tells them apart may be missing. Identical values can stand only once. Inconclusive results and toxic doses are left out.

System: P388 leukemia ip, CD2F1 mice, survival T/C
Assay: NCI In Vivo Anticancer Drug Screen. Data for tumor model P388 Leukemia (intraperitoneal) in CD2F1 (CDF1) mice
Conditions: endpoint: median survival time, higher = longer survival
Method in brief: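 Mice carrying the transplanted tumor received test compound or vehicle. Survival was recorded in each group, and the value is the treated-group measurement divided by that of the vehicle-treated control group.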

[1] = dose: 60.0 mg/kg/injection, schedule: Q01DX005 (ip), vehicle: saline with Tween-80
[2] = dose: 120.0 mg/kg/injection, schedule: Q01DX005 (ip), vehicle: saline with Tween-80
[3] = dose: 240.0 mg/kg/injection, schedule: Q01DX005 (ip), vehicle: saline with Tween-80
[4] = dose: 25.0 mg/kg/injection, schedule: Q01DX009 (ip), vehicle: saline with Tween-80
[5] = dose: 50.0 mg/kg/injection, schedule: Q01DX009 (ip), vehicle: saline with Tween-80
[6] = dose: 100.0 mg/kg/injection, schedule: Q01DX009 (ip), vehicle: saline with Tween-80
[7] = dose: 3.12 mg/kg/injection, schedule: Q01DX009 (ip), vehicle: saline
[8] = dose: 6.25 mg/kg/injection, schedule: Q01DX009 (ip), vehicle: saline
[9] = dose: 12.5 mg/kg/injection, schedule: Q01DX009 (ip), vehicle: saline
[10] = dose: 60.0 mg/kg/injection, schedule: Q01DX005 (ip), vehicle: Klucel (hydroxypropylcellulose) (HPC)
[11] = dose: 120.0 mg/kg/injection, schedule: Q01DX005 (ip), vehicle: Klucel (hydroxypropylcellulose) (HPC)
[12] = dose: 240.0 mg/kg/injection, schedule: Q01DX005 (ip), vehicle: Klucel (hydroxypropylcellulose) (HPC)
[13] = dose: 50.0 mg/kg/injection, schedule: Q01DX005 (ip), vehicle: saline with Tween-80
[14] = dose: 100.0 mg/kg/injection, schedule: Q01DX005 (ip), vehicle: saline with Tween-80
[15] = dose: 200.0 mg/kg/injection, schedule: Q01DX005 (ip), vehicle: saline with Tween-80
[16] = dose: 100.0 mg/kg/injection, schedule: Q01DX001 (ip), vehicle: saline with Tween-80
[17] = dose: 200.0 mg/kg/injection, schedule: Q01DX001 (ip), vehicle: saline with Tween-80
[18] = dose: 200.0 mg/kg/injection, schedule: Q01DX009 (ip), vehicle: saline with Tween-80

With `O=C1CCC(=O)S1` the T/C (dose: 12.5 mg/kg/injection, schedule: Q04DX002 (ip), vehicle: saline with Tween-80) was 100 % of control, the T/C (dose: 25.0 mg/kg/injection, schedule: Q04DX002 (ip), vehicle: saline with Tween-80) was 91 % of control and the T/C (dose: 50.0 mg/kg/injection, schedule: Q04DX002 (ip), vehicle: saline with Tween-80) was 91 % of control.

For `OC(CNc1c2ccccc2nc2ccccc12)COc1c2ccccc2nc2ccccc12` (stereo not given), the T/C [1] was 95 % of control, the T/C [2] was 92 % of control and the T/C [3] was 100 % of control.

For `C=CCCCN1C(=O)CCCC1=O`, the T/C [1] was 100 % of control, the T/C [2] was 101 % of control and the T/C [3] was 101 % of control.

With `COC1OC(CO)C2OC(C)(C)OC12` (stereo not given) the T/C (dose: 50.0 mg/kg/injection, schedule: Q01DX005 (ip), vehicle: suspension in saline) was 101 % of control, the T/C (dose: 100.0 mg/kg/injection, schedule: Q01DX005 (ip), vehicle: suspension in saline) was 106 % of control and the T/C (dose: 200.0 mg/kg/injection, schedule: Q01DX005 (ip), vehicle: suspension in saline) was 101 % of control.

`NC(Cc1ccc(O)cc1)c1nn[nH]n1` (stereo not given) was tested, and the T/C [4] was 114 % of control, the T/C [5] was 100 % of control and the T/C [6] was 99 % of control.

In the case of `O=C1C2C3CCC(O3)C2C(=O)N1SC(Cl)(Cl)Cl` (stereo not given), the T/C [7] was 101 % of control, the T/C [8] was 108 % of control and the T/C [9] was 100 % of control.

For `CC(=O)[O][Sn]([CH3])([CH3])[CH3]`, the T/C (dose: 0.37 mg/kg/injection, schedule: Q01DX009 (ip), vehicle: saline) was 112 % of control and the T/C (dose: 0.75 mg/kg/injection, schedule: Q01DX009 (ip), vehicle: saline) was 112 % of control.

With `CC(NC(=O)C(Cl)Cl)C(=O)O` (stereo not given) the T/C (dose: 50.0 mg/kg/injection, schedule: Q01DX005 (ip), vehicle: Klucel (hydroxypropylcellulose) (HPC)) was 96 % of control, the T/C (dose: 100.0 mg/kg/injection, schedule: Q01DX005 (ip), vehicle: Klucel (hydroxypropylcellulose) (HPC)) was 99 % of control and the T/C (dose: 200.0 mg/kg/injection, schedule: Q01DX005 (ip), vehicle: Klucel (hydroxypropylcellulose) (HPC)) was 96 % of control.

For `C=C1C[C@@H](O)[C@H](O)[C@@]2(C)C[C@@H]3OC(=O)C(=C)[C@@H]3C[C@H]12`, the T/C [7] was 103 % of control, the T/C [8] was 104 % of control and 119 % of control and the T/C [9] was 104 % of control and 113 % of control. For the same molecule, the T/C (dose: 25.0 mg/kg/injection, schedule: Q01DX009 (ip), vehicle: saline) was 122 % of control.

With `O=C(NC1C=Nc2ccccc2NC1=O)c1ccc(Cl)cc1` (stereo not given) the T/C [10] was 91 % of control, the T/C [11] was 98 % of control and the T/C [12] was 91 % of control.

In the case of `COc1cc(O)c(C(C)=O)c(O)c1`, the T/C (dose: 6.25 mg/kg/injection, schedule: Q01DX009 (ip), vehicle: saline with Tween-80) was 102 % of control, the T/C (dose: 12.5 mg/kg/injection, schedule: Q01DX009 (ip), vehicle: saline with Tween-80) was 93 % of control and the T/C [4] was 102 % of control. The T/C [5] was 100 % of control.

In the case of `CCC1(C(=O)c2ccccc2)C(C(=O)OC)=NC(=N)N=C1C(=O)OC` (stereo not given), the T/C [1] was 100 % of control and the T/C [2] was 95 % of control.

For `O=C(NCCCCN1CC1)C(=O)NCCCCN1CC1`, the T/C (dose: 0.78 mg/kg/injection, schedule: Q04DX003 (ip), vehicle: Klucel (hydroxypropylcellulose) (HPC)) was 120 % of control, the T/C (dose: 3.12 mg/kg/injection, schedule: Q04DX003 (ip), vehicle: Klucel (hydroxypropylcellulose) (HPC)) was 162 % of control and the T/C (dose: 6.25 mg/kg/injection, schedule: Q04DX003 (ip), vehicle: Klucel (hydroxypropylcellulose) (HPC)) was 178 % of control.

In the case of `Cc1ccc(C2SCC(=O)N2CCN2C(=O)CSC2c2ccc(C)s2)s1` (stereo not given), the T/C [13] was 101 % of control, the T/C [14] was 109 % of control and the T/C [15] was 100 % of control.

In the case of `CCOc1nc(N)c(C(=O)c2sc(OCC)nc2N)s1`, the T/C [16] was 107 % of control, the T/C [17] was 99 % of control and the T/C (dose: 400.0 mg/kg/injection, schedule: Q01DX001 (ip), vehicle: saline with Tween-80) was 92 % of control.

`O=C(O)Cc1cccc(=O)c(O)c1C(=O)O` was tested, and the T/C [13] was 98 % of control, the T/C [14] was 104 % of control and the T/C [15] was 96 % of control.

With `CC1=CC=c2ccc3c(c2[N-]1)[N-]C(C)=CC=3.CC1=CC=c2ccc3c(c2[N-]1)[N-]C(C)=CC=3.O=[N+]([O-])O.[Cu+]` the T/C (dose: 6.25 mg/kg/injection, schedule: Q04DX002 (ip), vehicle: suspension in saline) was 101 % of control and the T/C (dose: 12.5 mg/kg/injection, schedule: Q04DX002 (ip), vehicle: suspension in saline) was 103 % of control.

For `CC1(C)COC2(C)ON12` (stereo not given), the T/C [13] was 106 % of control, the T/C [14] was 117 % of control and the T/C [15] was 113 % of control.

`CCOC(=O)c1cnc2c(OC)cccc2c1Nc1ccc2c(c1)OCO2` was tested, and the T/C [10] was 101 % of control, the T/C [11] was 97 % of control and the T/C [12] was 96 % of control.

For `CC(Nc1ccc(S(=O)(=O)Nc2ncccn2)cc1)c1ccc2cccnc2c1O` (stereo not given), the T/C [16] was 94 % of control and the T/C [17] was 98 % of control.

For `COc1ccc(-c2cc(C(=O)O)c3cc4ccccc4cc3n2)cc1Br`, the T/C [5] was 94 % of control, the T/C [6] was 93 % of control and 97 % of control and the T/C [18] was 105 % of control and 87 % of control. For the same molecule, the T/C (dose: 400.0 mg/kg/injection, schedule: Q01DX009 (ip), vehicle: saline with Tween-80) was 121 % of control and 89 % of control and the T/C (dose: 600.0 mg/kg/injection, schedule: Q01DX009 (ip), vehicle: saline with Tween-80) was 101 % of control.

With `CC1CN1S(=O)(=O)N1CC1C` (stereo not given) the T/C (dose: 11.0 mg/kg/injection, schedule: Q04DX003 (ip), vehicle: saline with Tween-80) was 110 % of control, the T/C (dose: 16.5 mg/kg/injection, schedule: Q04DX003 (ip), vehicle: saline with Tween-80) was 155 % of control and the T/C (dose: 20.0 mg/kg/injection, schedule: Q01DX009 (ip), vehicle: saline with Tween-80) was 209 % of control. The T/C (dose: 25.0 mg/kg/injection, schedule: Q04DX003 (ip), vehicle: saline with Tween-80) was 195 % of control, the T/C (dose: 37.5 mg/kg/injection, schedule: Q04DX003 (ip), vehicle: saline with Tween-80) was 270 % of control and the T/C (dose: 40.0 mg/kg/injection, schedule: Q01DX009 (ip), vehicle: saline with Tween-80) was 172 % of control.

`O=C(O)c1cn(C2CCCCC2)c(=O)[nH]c1=O` was tested, and the T/C [13] was 99 % of control, the T/C [14] was 92 % of control and the T/C [15] was 92 % of control.

For `CC(C)C(NC(=O)OC(C)(C)C)C(=O)NC(CC(=O)OCc1ccccc1)C(=O)OCc1ccccc1` (stereo not given), the T/C [14] was 88 % of control, the T/C [15] was 91 % of control and the T/C (dose: 400.0 mg/kg/injection, schedule: Q01DX005 (ip), vehicle: saline with Tween-80) was 88 % of control.

With `CC(C)(O)c1cccs1` the T/C (dose: 60.0 mg/kg/injection, schedule: Q01DX005 (ip), vehicle: saline) was 100 % of control, the T/C (dose: 120.0 mg/kg/injection, schedule: Q01DX005 (ip), vehicle: saline) was 100 % of control and the T/C (dose: 240.0 mg/kg/injection, schedule: Q01DX005 (ip), vehicle: saline) was 99 % of control.

For `CN(C)c1ccc(C2CC(C)(O)Oc3cc4c(cc32)OCO4)cc1` (stereo not given), the T/C [10] was 102 % of control, the T/C [11] was 110 % of control and the T/C [12] was 108 % of control.

With `O=S(=O)(O)c1cncc(S(=O)(=O)O)n1` the T/C (dose: 100.0 mg/kg/injection, schedule: Q01DX009 (ip), vehicle: saline) was 110 % of control, the T/C (dose: 100.0 mg/kg/injection, schedule: Q04DX003 (ip), vehicle: saline) was 100 % of control and the T/C (dose: 200.0 mg/kg/injection, schedule: Q01DX009 (ip), vehicle: saline) was 105 % of control. For the same molecule, the T/C (dose: 200.0 mg/kg/injection, schedule: Q04DX003 (ip), vehicle: saline) was 104 % of control, the T/C (dose: 400.0 mg/kg/injection, schedule: Q01DX009 (ip), vehicle: saline) was 100 % of control and the T/C (dose: 400.0 mg/kg/injection, schedule: Q04DX003 (ip), vehicle: saline) was 100 % of control.

In the case of `COc1ccc(/C=C2\C(=O)N(Cc3ccco3)SC2=S)c(OC)c1OC`, the T/C [5] was 90 % of control, the T/C [6] was 90 % of control and the T/C [18] was 106 % of control.

`COc1cc2c(cc1OC)C(=O)CCC2` was tested, and the T/C (dose: 25.0 mg/kg/injection, schedule: Q01DX009 (ip), vehicle: Klucel (hydroxypropylcellulose) (HPC)) was 105 % of control, the T/C (dose: 50.0 mg/kg/injection, schedule: Q01DX009 (ip), vehicle: Klucel (hydroxypropylcellulose) (HPC)) was 100 % of control and the T/C (dose: 100.0 mg/kg/injection, schedule: Q01DX009 (ip), vehicle: Klucel (hydroxypropylcellulose) (HPC)) was 106 % of control. The T/C (dose: 200.0 mg/kg/injection, schedule: Q01DX009 (ip), vehicle: Klucel (hydroxypropylcellulose) (HPC)) was 99 % of control.

With `CC(=O)N/N=C/C(C)(C)C(C)(C)/C=N/NC(C)=O` the T/C [11] was 153 % of control.
